Measured values reported in article PMC4547393, “Resin-acid derivatives as potent electrostatic openers of voltage-gated K channels and suppressors of neuronal excitability” (Scientific Reports, 2015).

Tests used:
Format in all cases: cell-based
[1] = target: T1, 3R Shaker K channel (Drosophila melanogaster, UniProt P08510, DEL6-46/M356R/A359R); test: two-electrode voltage clamp in Xenopus oocytes, G(V) shift at […]
T1 construct: gene Sh

[2] = target: T2, 3R Shaker K channel (Drosophila melanogaster, UniProt P08510, A359R/DEL6-46/M356R); test: two-electrode voltage clamp in Xenopus oocytes, G(V) shift
T2 construct: gene Sh

[3] = target: T3, Shaker K channel (WT) (Drosophila melanogaster, UniProt P08510, DEL6-46); test: two-electrode voltage clamp in Xenopus oocytes, G(V) shift at […]
T3 construct: gene Sh

[4] = target: T3, Shaker K channel (WT); test: two-electrode voltage clamp in Xenopus oocytes, G(V) shift and pH dependence at […]
[5] = target: T2, 3R Shaker K channel; test: two-electrode voltage clamp in Xenopus oocytes, G(V) shift; also patch clamp in CHO-K1 cells

T2 sequence (P08510 with tags, fused parts or gaps DEL6-46/M356R/A359R): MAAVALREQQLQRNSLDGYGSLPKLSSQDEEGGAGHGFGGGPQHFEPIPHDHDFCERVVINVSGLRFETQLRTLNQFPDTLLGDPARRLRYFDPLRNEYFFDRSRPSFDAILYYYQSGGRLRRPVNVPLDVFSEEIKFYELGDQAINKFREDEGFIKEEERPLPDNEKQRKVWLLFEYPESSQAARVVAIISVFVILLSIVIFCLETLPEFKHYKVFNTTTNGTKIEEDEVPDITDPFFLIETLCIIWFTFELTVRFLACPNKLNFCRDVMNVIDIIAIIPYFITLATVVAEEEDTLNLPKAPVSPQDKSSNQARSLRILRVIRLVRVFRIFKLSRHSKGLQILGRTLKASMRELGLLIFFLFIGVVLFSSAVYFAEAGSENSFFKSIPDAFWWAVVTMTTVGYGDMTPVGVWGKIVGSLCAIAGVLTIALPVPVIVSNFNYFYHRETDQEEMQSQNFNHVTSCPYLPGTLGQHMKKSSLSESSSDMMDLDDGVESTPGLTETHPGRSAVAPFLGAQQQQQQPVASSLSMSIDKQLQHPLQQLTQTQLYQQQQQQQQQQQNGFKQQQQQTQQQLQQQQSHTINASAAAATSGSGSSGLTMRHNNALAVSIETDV
T1 sequence (P08510 with tags, fused parts or gaps DEL6-46/M356R/A359R): as above
T3 sequence (P08510 with tags, fused parts or gaps DEL6-46): as the sequence (P08510 with tags, fused parts or gaps DEL6-46/M356R/A359R) above, with R315M, R318A counted along it

Compound	two-electrode voltage clamp in Xenopus oocytes, G(V) shift at 100 μM [1]	two-electrode voltage clamp in Xenopus oocytes, G(V) shift at 100 μM [3]	EC50 [5]	further results
C=C[C@@]1(C)CC[C@H]2C(=CC[C@@H]3[C@]2(C)CCC[C@@]3(C)C(=O)O)C1 [compound 2, isopimaric acid]	−15.9 ± 1.8 mV	–	–	–
CC(C)C1=CC2=CC[C@@H]3[C@](C)(CCC[C@@]3(C)C(=O)O)[C@H]2CC1 [compound 3, abietic acid]	−11.2 ± 2 mV	–	–	–
CC(C)c1ccc2c(c1)CC[C@H]1[C@](C)(C(=O)O)CCC[C@]21C [compound 4, dehydroabietic acid]	–	−2.3 mV	–	EC50 [2]: 89 µM
C=CCON=C1C[C@H]2[C@](C)(C(=O)O)CCC[C@]2(C)c2ccc(C(C)C)cc21 [compound 19, Compound 19]	−17.8 ± 1.9 mV	–	–	–
CON=C1C[C@H]2[C@](C)(C(=O)O)CCC[C@]2(C)c2cc(Br)c(C(C)C)cc21 [compound 33, Compound 33]	–	–	37 µM	two-electrode voltage clamp in Xenopus oocytes, G(V) shift and pH dependence at [4]: For all three compounds, the induced shifts are smaller on Shaker WT compared to Shaker 3R K channels
C[C@@]1(C(=O)O)CCC[C@]2(C)c3cc(Cl)c(Cl)c(Cl)c3CC[C@@H]12 [compound 77, Compound 77]	–	−21.2 mV	37 µM	–
